Results taken from ChEMBL document CHEMBL2429768, “Eco-friendly synthesis and antimicrobial activities of substituted-5-(1H-indol-3-yl)methylene)-2,2-dimethyl-1,3-dioxane-4,6-dione derivatives” (2013).
In brackets after ≈: the same amount, converted by molar mass.

How the values were obtained:
Format in all cases: functional
Staphylococcus aureus [1] = experiment: Antibacterial activity against Staphylococcus aureus ATCC 6538 at 100 ug/ml after 24 hrs by agar well diffusion method; details: ATCC 6538, 24 h, read-out: DIZ
Bacillus subtilis [2] = experiment: Antibacterial activity against Bacillus subtilis at 100 ug/ml after 24 hrs by agar well diffusion method; details: read-out: DIZ
Klebsiella pneumoniae [3] = experiment: Antibacterial activity against Klebsiella pneumoniae at 100 ug/ml after 24 hrs by agar well diffusion method; details: read-out: DIZ
Bacillus subtilis [4] = experiment: Antibacterial activity against Bacillus subtilis at 500 ug/ml after 24 hrs by agar well diffusion method; details: read-out: DIZ
Staphylococcus aureus [5] = experiment: Antibacterial activity against Staphylococcus aureus ATCC 6538 after 24 hrs by agar well diffusion method; details: ATCC 6538, 24 h
Escherichia coli [6] = experiment: Antibacterial activity against Escherichia coli ATCC 8739 at 300 ug/ml after 24 hrs by agar well diffusion method; details: ATCC 8739, 24 h, read-out: DIZ
Rhizoctonia solani [7] = experiment: Antifungal activity against Rhizoctonia solani at 500 ug/ml after 72 hrs by agar well diffusion method; details: read-out: DIZ
Aspergillus flavus [8] = experiment: Antifungal activity against Aspergillus flavus at 50 ug/ml after 72 hrs by agar well diffusion method; details: read-out: DIZ
Fusarium oxysporum [9] = experiment: Antifungal activity against Fusarium oxysporum at 200 ug/ml after 72 hrs by agar well diffusion method; details: read-out: DIZ
Staphylococcus aureus [10] = experiment: Antibacterial activity against Staphylococcus aureus ATCC 6538 at 50 ug/ml after 24 hrs by agar well diffusion method; details: ATCC 6538, 24 h, read-out: DIZ
Aspergillus flavus [11] = experiment: Antifungal activity against Aspergillus flavus at 100 ug/ml after 72 hrs by agar well diffusion method; details: read-out: DIZ
Aspergillus niger [12] = experiment: Antifungal activity against Aspergillus niger at 300 ug/ml after 72 hrs by agar well diffusion method; details: read-out: DIZ
Klebsiella pneumoniae [13] = experiment: Antibacterial activity against Klebsiella pneumoniae at 300 ug/ml after 24 hrs by agar well diffusion method; details: read-out: DIZ
Aspergillus niger [14] = experiment: Antifungal activity against Aspergillus niger at 100 ug/ml after 72 hrs by agar well diffusion method; details: read-out: DIZ
Escherichia coli [15] = experiment: Antibacterial activity against Escherichia coli ATCC 8739 at 100 ug/ml after 24 hrs by agar well diffusion method; details: ATCC 8739, 24 h, read-out: DIZ
Rhizoctonia solani [16] = experiment: Antifungal activity against Rhizoctonia solani at 300 ug/ml after 72 hrs by agar well diffusion method; details: read-out: DIZ
Bacillus subtilis [17] = experiment: Antibacterial activity against Bacillus subtilis at 200 ug/ml after 24 hrs by agar well diffusion method; details: read-out: DIZ
Fusarium oxysporum [18] = experiment: Antifungal activity against Fusarium oxysporum at 100 ug/ml after 72 hrs by agar well diffusion method; details: read-out: DIZ
Klebsiella pneumoniae [19] = experiment: Antibacterial activity against Klebsiella pneumoniae after 24 hrs by agar well diffusion method
Aspergillus niger [20] = experiment: Antifungal activity against Aspergillus niger at 50 ug/ml after 72 hrs by agar well diffusion method; details: read-out: DIZ
Fusarium oxysporum [21] = experiment: Antifungal activity against Fusarium oxysporum after 72 hrs by agar well diffusion method
Escherichia coli [22] = experiment: Antibacterial activity against Escherichia coli ATCC 8739 after 24 hrs by agar well diffusion method; details: ATCC 8739, 24 h
Aspergillus flavus [23] = experiment: Antifungal activity against Aspergillus flavus at 300 ug/ml after 72 hrs by agar well diffusion method; details: read-out: DIZ
Rhizoctonia solani [24] = experiment: Antifungal activity against Rhizoctonia solani at 100 ug/ml after 72 hrs by agar well diffusion method; details: read-out: DIZ
Aspergillus niger [25] = experiment: Antifungal activity against Aspergillus niger at 500 ug/ml after 72 hrs by agar well diffusion method; details: read-out: DIZ
Klebsiella pneumoniae [26] = experiment: Antibacterial activity against Klebsiella pneumoniae at 200 ug/ml after 24 hrs by agar well diffusion method; details: read-out: DIZ
Aspergillus flavus [27] = experiment: Antifungal activity against Aspergillus flavus at 200 ug/ml after 72 hrs by agar well diffusion method; details: read-out: DIZ
Escherichia coli [28] = experiment: Antibacterial activity against Escherichia coli ATCC 8739 at 500 ug/ml after 24 hrs by agar well diffusion method; details: ATCC 8739, 24 h, read-out: DIZ
Klebsiella pneumoniae [29] = experiment: Antibacterial activity against Klebsiella pneumoniae at 50 ug/ml after 24 hrs by agar well diffusion method; details: read-out: DIZ
Bacillus subtilis [30] = experiment: Antibacterial activity against Bacillus subtilis at 300 ug/ml after 24 hrs by agar well diffusion method; details: read-out: DIZ
Rhizoctonia solani [31] = experiment: Antifungal activity against Rhizoctonia solani at 200 ug/ml after 72 hrs by agar well diffusion method; details: read-out: DIZ
Escherichia coli [32] = experiment: Antibacterial activity against Escherichia coli ATCC 8739 at 50 ug/ml after 24 hrs by agar well diffusion method; details: ATCC 8739, 24 h, read-out: DIZ
Rhizoctonia solani [33] = experiment: Antifungal activity against Rhizoctonia solani at 50 ug/ml after 72 hrs by agar well diffusion method; details: read-out: DIZ
Staphylococcus aureus [34] = experiment: Antibacterial activity against Staphylococcus aureus ATCC 6538 at 500 ug/ml after 24 hrs by agar well diffusion method; details: ATCC 6538, 24 h, read-out: DIZ
Bacillus subtilis [35] = experiment: Antibacterial activity against Bacillus subtilis at 50 ug/ml after 24 hrs by agar well diffusion method; details: read-out: DIZ
Escherichia coli [36] = experiment: Antibacterial activity against Escherichia coli ATCC 8739 at 200 ug/ml after 24 hrs by agar well diffusion method; details: ATCC 8739, 24 h, read-out: DIZ
Aspergillus flavus [37] = experiment: Antifungal activity against Aspergillus flavus at 500 ug/ml after 72 hrs by agar well diffusion method; details: read-out: DIZ
Staphylococcus aureus [38] = experiment: Antibacterial activity against Staphylococcus aureus ATCC 6538 at 300 ug/ml after 24 hrs by agar well diffusion method; details: ATCC 6538, 24 h, read-out: DIZ
Rhizoctonia solani [39] = experiment: Antifungal activity against Rhizoctonia solani after 72 hrs by agar well diffusion method
Fusarium oxysporum [40] = experiment: Antifungal activity against Fusarium oxysporum at 500 ug/ml after 72 hrs by agar well diffusion method; details: read-out: DIZ
Fusarium oxysporum [41] = experiment: Antifungal activity against Fusarium oxysporum at 50 ug/ml after 72 hrs by agar well diffusion method; details: read-out: DIZ
Aspergillus flavus [42] = experiment: Antifungal activity against Aspergillus flavus after 72 hrs by agar well diffusion method
Staphylococcus aureus [43] = experiment: Antibacterial activity against Staphylococcus aureus ATCC 6538 at 200 ug/ml after 24 hrs by agar well diffusion method; details: ATCC 6538, 24 h, read-out: DIZ
Klebsiella pneumoniae [44] = experiment: Antibacterial activity against Klebsiella pneumoniae at 500 ug/ml after 24 hrs by agar well diffusion method; details: read-out: DIZ
Bacillus subtilis [45] = experiment: Antibacterial activity against Bacillus subtilis after 24 hrs by agar well diffusion method
Fusarium oxysporum [46] = experiment: Antifungal activity against Fusarium oxysporum at 300 ug/ml after 72 hrs by agar well diffusion method; details: read-out: DIZ
Aspergillus niger [47] = experiment: Antifungal activity against Aspergillus niger at 200 ug/ml after 72 hrs by agar well diffusion method; details: read-out: DIZ
Aspergillus niger [48] = experiment: Antifungal activity against Aspergillus niger after 72 hrs by agar well diffusion method

MIC (Staphylococcus aureus [5]): 25 µg/mL (≈ 75.9 µM)
MIC (Klebsiella pneumoniae [19]): 15 µg/mL (≈ 45.5 µM)
MIC (Fusarium oxysporum [21]): 35 µg/mL (≈ 106 µM)
MIC (Escherichia coli [22]): 15 µg/mL (≈ 45.5 µM)
MIC (Rhizoctonia solani [39]): 35 µg/mL (≈ 106 µM)
MIC (Aspergillus flavus [42]): 40 µg/mL (≈ 121 µM)
MIC (Bacillus subtilis [45]): 30 µg/mL (≈ 91.1 µM)
MIC (Aspergillus niger [48]): 40 µg/mL (≈ 121 µM)
SMILES: CCn1cc(C=C2C(=O)OC(C)(C)OC2=O)c2cc(OC)ccc21
zone of inhibition at 100 µg/mL (Staphylococcus aureus [1]): 9 mm
zone of inhibition at 100 µg/mL (Bacillus subtilis [2]): 8 mm
zone of inhibition at 100 µg/mL (Klebsiella pneumoniae [3]): 13 mm
zone of inhibition at 500 µg/mL (Bacillus subtilis [4]): 21 mm
zone of inhibition at 300 µg/mL (Escherichia coli [6]): 16 mm
zone of inhibition at 500 µg/mL (Rhizoctonia solani [7]): 29 mm
zone of inhibition at 50 µg/mL (Aspergillus flavus [8]): 4 mm
zone of inhibition at 200 µg/mL (Fusarium oxysporum [9]): 16 mm
zone of inhibition at 50 µg/mL (Staphylococcus aureus [10]): 4 mm
zone of inhibition at 100 µg/mL (Aspergillus flavus [11]): 9 mm
zone of inhibition at 300 µg/mL (Aspergillus niger [12]): 18 mm
zone of inhibition at 300 µg/mL (Klebsiella pneumoniae [13]): 20 mm
zone of inhibition at 100 µg/mL (Aspergillus niger [14]): 10 mm
zone of inhibition at 100 µg/mL (Escherichia coli [15]): 10 mm
zone of inhibition at 300 µg/mL (Rhizoctonia solani [16]): 21 mm
zone of inhibition at 200 µg/mL (Bacillus subtilis [17]): 10 mm
zone of inhibition at 100 µg/mL (Fusarium oxysporum [18]): 12 mm
zone of inhibition at 50 µg/mL (Aspergillus niger [20]): 6 mm
zone of inhibition at 300 µg/mL (Aspergillus flavus [23]): 15 mm
zone of inhibition at 100 µg/mL (Rhizoctonia solani [24]): 12 mm
zone of inhibition at 500 µg/mL (Aspergillus niger [25]): 25 mm
zone of inhibition at 200 µg/mL (Klebsiella pneumoniae [26]): 15 mm
zone of inhibition at 200 µg/mL (Aspergillus flavus [27]): 12 mm
zone of inhibition at 500 µg/mL (Escherichia coli [28]): 26 mm
zone of inhibition at 50 µg/mL (Klebsiella pneumoniae [29]): 8 mm
zone of inhibition at 300 µg/mL (Bacillus subtilis [30]): 13 mm
zone of inhibition at 200 µg/mL (Rhizoctonia solani [31]): 16 mm
zone of inhibition at 50 µg/mL (Escherichia coli [32]): 6 mm
zone of inhibition at 50 µg/mL (Rhizoctonia solani [33]): 7 mm
zone of inhibition at 500 µg/mL (Staphylococcus aureus [34]): 22 mm
zone of inhibition at 50 µg/mL (Bacillus subtilis [35]): 4 mm
zone of inhibition at 200 µg/mL (Escherichia coli [36]): 13 mm
zone of inhibition at 500 µg/mL (Aspergillus flavus [37]): 23 mm
zone of inhibition at 300 µg/mL (Staphylococcus aureus [38]): 14 mm
zone of inhibition at 500 µg/mL (Fusarium oxysporum [40]): 29 mm
zone of inhibition at 50 µg/mL (Fusarium oxysporum [41]): 7 mm
zone of inhibition at 200 µg/mL (Staphylococcus aureus [43]): 11 mm
zone of inhibition at 500 µg/mL (Klebsiella pneumoniae [44]): 31 mm
zone of inhibition at 300 µg/mL (Fusarium oxysporum [46]): 21 mm
zone of inhibition at 200 µg/mL (Aspergillus niger [47]): 14 mm
